The nature of data set [1]: Pharmacokinetics in CD-1 mice. The data set is classed as in vivo, mouse. To be noted: mouse, plasma, sc; single subcutaneous injection, 1 mg/kg, male CD-1 mice.
Data set [2] concerns the target T1, GLP-1R (Homo sapiens, UniProt P43220). In words: PathHunter β-arrestin-2 recruitment. In kind it is cell-based. Details: host or cells: CHO-K1 (PathHunter). To be noted: SM102 vs Semaglutide; 30 min at 37°C, luminescence. The procedure:
HEK293 cells stably expressing human GLP-1R (hGLP-1 R) (generated in-house using HEK293 cell line purchased from ATCC, Cat# CRL-1573) were maintained in Dulbecco’s Modified Eagle Medium (DMEM, Gibco, 11,054,020) with 10% fetal bovine serum (FBS, Gibco, 10,099,133 C), 1% penicillin/streptomycin (Gibco, 10,378,016) and 1 mg/mL G418 (Gibco, 10,131,035). Wild-type INS-1 832/3 cells, or INS-1 832/3 cells lacking endogenous GLP-1 R (generated in-house using INS-1 832/3 cell line purchased from NTCC, Cat# CVCL_ZL55) were maintained in RPMI-1640 (Gibco, 22,400,071) with 1 mM sodium pyruvate (Gibco, 11,360,070), 50 μM β-mercaptoethanol (Gibco, 21,985,023), 10% FBS, and 1% penicillin/streptomycin. PathHunter CHO-K1-βarr2-EAGLP1R cells (DiscoverX) were maintained in F12 medium (Gibco, 11,320,033) with 10% FBS, 1% penicillin/streptomycin, 1 mg/mL G418 and 250 μg/mL hygromycin (Gibco, 10,687,010).
PathHunter CHO-K1-βarr2-EA-GLP-1 R cells were stimulated with agonist for 30 min at 37°C in Ham’s F12 medium (Gibco, 11,765,054) without FBS. At the end of the incubation period cells were lysed by addition of PathHunter detection reagents and luminescent signal was subsequently recorded from each well.
(In general: Activated receptors often draw arrestin, which recruitment assays turn into a signal.)

Data set [3] has as its system INS-1 832/3 cells. Put plainly: Insulin release after overnight incubation, INS-1 832/3 cells. To be noted: 16 h (overnight), range of concentrations, 11 mM glucose, HTRF. The data set is classed as cell-based. The procedure:
Mouse islets (10/well) were incubated in triplicate for each condition and treatment. Islets were preincubated for 1 hour in 3 mM glucose KRH buffer prior to secretion assay (30 min) in 3 mM or 11 mM glucose with vehicle or 100 nM SM102 or Semaglutide. The secretion medium was then collected to measure the insulin and proinsulin concentrations using an insulin HTRF kit (Cisbio Bioassays). INS-1 832/3 cells were treated with the indicated concentrations of SM102 or Semaglutide for 16 h in complete RPMI1640 medium at 11 mM glucose. A sample of supernatant was collected and analyzed for insulin content by HTRF.

For data set [4], the target named is T1, GLP-1R. Put plainly: GLP-1R binding affinity. Details: expressed in transfected cells. To be noted: compared to Semaglutide.
In data set [5] the target is T2, hGLP-1 R (Homo sapiens, UniProt P43220).
T2 construct: expressed in transfected cells; host or cells: INS-1 832/3 (abstract: 832/13) rat insulinoma cells
In words: GLP-1R recycling assay (exendin-4-TMR uptake). In kind it is cell-based. To be noted: 100 nM agonist 1 hour, washout, exendin-4-TMR 1 or 3 hours; compared to Semaglutide. The procedure: INS-1 hGLP-1 R cells were seeded the day before the assay in 96-well imaging plates. Cells were washed twice with PBS, then stimulated with 100 nM of respective agonist in complete media, with an equal number of wells kept as vehicles. Following stimulation of the cells for 1 hour, they were washed twice with PBS and labeled with exendin-4-TMR13 for either 1 hour or 3 hours, washed again with PBS, and imaged via high content microscopy.

Data set [6] concerns db/db mice. In words: Chronic administration study in db/db mice. The data set is classed as in vivo, mouse. The method, then:
The diabetic db/db mice (half male and half female, 8–12 weeks, body weight- 40-50 g) were brought from Cavens Company Ltd. (Changzhou) and housed in individual ventilated cages with free access to food and water and maintained on a 12-hour light/dark cycle. Animals were acclimatized for 3 days. On day 0, each animal was weighed using a digital weighing balance. Blood was collected by retro-orbital plexus puncture. Blood glucose level was measured using a hand-held blood glucose meter (Johnson & Johnson) and %HbA1c was measured using auto fluorescence immunoanalyzer.
Animals were divided into treatment groups (n = 8 per group; 4 male, 4 female) with matched baseline %HbA1c levels (mean 7.3%). Vehicle, SM102 (1, 3 and 9 nmol/kg), Semaglutide (15 nmol/kg) were subcutaneously injected into the neck region of the animals on every other day for 4 weeks.
Body weight and food intake were monitored serially. On day 29 of the study, 24 h following the last dose, blood was collected for measurement of %HbA1c, triglycerides, insulin, C-peptide and glucagon. The function of β-cell was assessed via calculating the […] from blood concentrations of glucose and insulin.

T1 sequence (P43220 24-463): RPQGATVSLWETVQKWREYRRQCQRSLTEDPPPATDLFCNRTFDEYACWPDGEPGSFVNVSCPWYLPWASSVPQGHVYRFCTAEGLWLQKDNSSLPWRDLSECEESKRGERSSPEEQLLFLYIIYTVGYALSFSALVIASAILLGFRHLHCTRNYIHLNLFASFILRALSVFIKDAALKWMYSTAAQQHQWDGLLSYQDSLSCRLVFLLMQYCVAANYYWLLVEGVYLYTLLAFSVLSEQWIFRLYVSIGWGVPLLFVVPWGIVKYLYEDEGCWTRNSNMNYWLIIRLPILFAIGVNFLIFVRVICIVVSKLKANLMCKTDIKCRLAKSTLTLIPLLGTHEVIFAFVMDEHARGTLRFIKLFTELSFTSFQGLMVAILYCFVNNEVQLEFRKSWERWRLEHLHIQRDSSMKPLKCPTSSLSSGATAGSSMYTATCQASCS
T2 sequence (P43220 24-463): as above

The term half-life denotes the time needed for the level to fall by half in the phase considered. The low end stands for rapid decline, the high end for slow decline. Compound `CC[C@H](C)[C@H](NC(=O)[C@H](Cc1ccccc1)NC(=O)[C@H](CCC(=O)O)NC(=O)[C@H](CCCCNC(=O)COCCOCCNC(=O)C(C)(C)NC(=O)CC[C@H](NC(=O)CCCCCCCCCCCCCCCCC(=O)O)C(=O)O)NC(=O)[C@H](C)NC(=O)[C@H](C)NC(=O)[C@H](CCC(N)=O)NC(=O)CNC(=O)[C@H](CCC(=O)O)NC(=O)[C@H](CC(C)C)NC(=O)[C@H](Cc1ccc(O)cc1)NC(=O)[C@H](CO)NC(=O)[C@H](CO)NC(=O)[C@@H](NC(=O)[C@H](CC(=O)O)NC(=O)[C@H](CO)NC(=O)[C@@H](NC(=O)[C@H](Cc1ccccc1)NC(=O)[C@@H](NC(=O)CNC(=O)[C@H](CCC(=O)O)NC(=O)C(C)(C)NC(=O)[C@@H](N)Cc1c[nH]cn1)[C@@H](C)O)[C@@H](C)O)C(C)C)C(=O)N[C@@H](C)C(=O)N[C@@H](Cc1c[nH]c2ccccc12)C(=O)N[C@@H](CC(C)C)C(=O)N[C@H](C(=O)N[C@@H](CCCNC(=N)N)C(=O)NCC(=O)N[C@@H](CCCNC(=N)N)C(=O)NCC(=O)N[C@@H](CC(C)C)C(N)=O)C(C)C` [SM102] showed a half-life in data set [1] of roughly 47.6 h. Also, the “β-arrestin-2 recruitment response potency or Emax” value in data set [2] is “no differences in response potency or Emax”. The “insulin release responses, SM102 vs Semaglutide” value in data set [3] was “virtually indistinguishable”. The “GLP-1 R binding affinity” value in data set [4] is given as “moderate increases”. The “GLP-1 R recycling” value in data set [5] is “modestly reduced recycling”. Besides, the “improvement in blood glucose and insulin secretion vs Semaglutide 15 nmol/kg” value in data set [6] (SM102 1 nmol/kg, 4 weeks of treatment) was “comparable to Semaglutide”. For the same compound, in data set [6] (SM102 3 nmol/kg s.c. every other day, 28 days), the “therapeutic effect vs Semaglutide 15 nmol/kg” value is recorded as “comparable”. Also, the “therapeutic effect vs Semaglutide 15 nmol/kg: weight loss, glucose, HOMA-IR” value in data set [6] (SM102 9 nmol/kg s.c. every other day, 28 days) is reported as “superior”.
